Experimental data: patent US20180111893A1, “POLYCATIONIC AMPHIPHILES AND POLYMERS THEREOF AS ANTIMICROBIAL AGENTS AND METHODS USING SAME” (Temple University-Of The Commonwealth System of Higher …, priority 2015, published 2018)

Key:
[1] = system: six bacteria (SA, HA-MRSA, CA-MRSA, EF, EC, PA); experiment: MIC against the panel of bacteria tested; format: cell-based; conditions: all bacteria except for P. aeruginosa
Method: (§1) As used herein, the term “minimum inhibitory concentration (MIC)” refers to the lowest concentration of an antimicrobial agent that will inhibit the visible growth of a microorganism after overnight incubation. MIC values against bacteria, for example, the Gram-positive Staphylococcus aureus and Enterococcus faecalis and the Gram-negative Escherichia coli and Pseudomonas aeruginosa were determined by standard methods. See also P. A. Wayne, Methods for Dilution Antimicrobial Tests for Bacteria that Grow Aerobically; Approved Standard, Ninth Edition, 2012, CLSI Document M07-A9, Vol. 32 No. 2, which is incorporated by reference herein in its entirety.
The complete set of MIC values against six bacteria [Staphylococcus aureus (SA), hospital-acquired methicillin-resistant SA (HA-MRSA), community-acquired methicillin-resistant SA (CA-MRSA), Enterococcus faecalis (EF), Escherichia coli (EC), and Pseudomonas aeruginosa (PA)] is presented in Table 3, wherein multiQACs are grouped with their monoQAC counterparts. The dye-based QACs with greatest inhibition of the complete range of Gram-positive and Gram-negative bacteria featured bis- or tris-quaternization, with the optimal alkyl total ranging from 17-24 carbons. For example, comparison of two biscationic series -LMG-n,1 and LMG-n,n—evaluates the effect of total alkyl chain length in retention of efficacy against the more challenging CA-MRSA and the Gram-negative strains EC and PA.
(§2) Compounds were serially diluted two-fold from a 10% DMSO/aqueous stock solution to yield twelve test concentrations. Overnight S. aureus, E. faecalis, E. coli, P. aeruginosa, CA-MRSA, and HA-MRSA cultures diluted to ca. 10^6 cfu/mL in Mueller-Hinton media and 100 μL were inoculated into each well of a U-bottom 96-well plate (BD Biosciences, BD351177) containing 100 μL of compound solution. Plates were incubated statically at 37° C. for 72 hours upon which time wells were evaluated visually for bacterial growth. The MIC was determined as the lowest concentration of compound resulting in no bacterial growth visible to the naked eye, based on the majority of three independent experiments. Positive and negative DMSO/aqueous solution and media controls were conducted for each trial. See Peng et al., 2011, Chem. Comm. 47:4896-4898.

[2] = system: MRSA biofilms (S. aureus USA300-0114); experiment: Minimum biofilm eradication concentration (MBEC), regrowth assay; format: cell-based, Staphylococcus aureus; set-up: MBEC MRSA: unit not given here; conditions: for MBEC MRSA: Table 5, regrowth OD under 0.1 (italics: OD < 0.5)
Method: (§3) A regrowth assay was used to establish the MBEC of a compound to evaluate the antibiofilm activity. See also H. Ceri, M. Olson, D. Morck, D. Storey, R. Read, A. Buret, B. Olson, Methods Enzymol. 2001, 337, 377, which is incorporated by reference herein in its entirety.
(§4) To each well of a flat-bottomed 96-well plate (Corning 3370), 8 μL of overnight bacterial culture was brought to a volume of 200 μL with fresh media (BHI for MSSA and MRSA). Plates were incubated statically for 24 hours at 37° C. to establish biofilms. After 24 hours, the wells were carefully emptied by inverting the plate and gently shaking. A pre-mixed solution of media and compound stock solution was added to each well and plates were incubated at 37° C. 16 hours after pre-established biofilms were treated with compound, the media from each well was removed, biofilms were washed three times with 200 μL PBS to remove planktonic cells, and biofilms were incubated overnight at 37° C. in 200 μL of fresh media to allow any viable cells to continue growing. The wells were then vigorously pipetted to resuspend the biofilm cells and the OD at 595 nm was measured using a plate reader (POLARstar Omega, BMG Labtech). Biofilms reaching a final OD of less than 0.1 were considered eradicated and the lowest concentration of antibiotic corresponded to the MBEC. Four replicates were completed for each concentration of compound as well as positive and negative controls.

[3] = system: Staphylococcus aureus (MSSA) biofilms; experiment: as above; format: cell-based; set-up: MBEC MSSA: unit not given here; conditions: Table 5; regrowth OD under 0.1 (italics: OD < 0.5)
Method: as §3, §4

[4] = system: Pseudomonas aeruginosa (PAO1); experiment: Minimum inhibitory concentration (MIC); format: cell-based
Method: as §1, §2
as §2, with “trial.” for “trial. See Peng et al., 2011, Chem. Comm. 47:4896-4898.”

[5] = system: Escherichia coli (MC4100); experiment: Minimum inhibitory concentration (MIC); format: cell-based
Method: as §1, §2
as §2, with “trial.” for “trial. See Peng et al., 2011, Chem. Comm. 47:4896-4898.”

[6] = system: Enterococcus faecalis (OG1RF); experiment: Minimum inhibitory concentration (MIC); format: cell-based; conditions: Table 6
Method: as §1, §2
as §2, with “trial.” for “trial. See Peng et al., 2011, Chem. Comm. 47:4896-4898.”

[7] = system: hospital-acquired methicillin-resistant Staphylococcus aureus HA-MRSA (ATCC 33591); experiment: Minimum inhibitory concentration (MIC); format: cell-based; conditions: Table 6
Method: as §1, §2
as §2, with “trial.” for “trial. See Peng et al., 2011, Chem. Comm. 47:4896-4898.”

[8] = system: community-acquired methicillin-resistant Staphylococcus aureus CA-MRSA (USA300-0114); experiment: Minimum inhibitory concentration (MIC); format: cell-based; set-up: MIC MRSA: unit not given here; conditions: for MIC CA-MRSA: Table 6
Method: as §1, §2
as §2, with “trial.” for “trial. See Peng et al., 2011, Chem. Comm. 47:4896-4898.”

[9] = system: Staphylococcus aureus (SA; MSSA SH1000); experiment: Minimum inhibitory concentration (MIC); format: cell-based; set-up: MIC MSSA: unit not given here; conditions: for MIC SA: Table 6
Method: as §1, §2
as §2, with “trial.” for “trial. See Peng et al., 2011, Chem. Comm. 47:4896-4898.”

red blood cells = format: cell-based, sheep
Method: To date, synthesized compounds have been evaluated against planktonic bacteria (E. coli, S. aureus, P. aeruginosa, E. facaelis) and bacterial biofilms (E. facaelis, S. aureus, MRSA); new compounds are similarly assessed. All compounds are also evaluated via a hemolysis assay to assess their ability to lyse red blood cells (RBC) (Nagamune et al., 2000, Toxicology in Vitro 14:139-147). The assay is conducted following a known protocol to determine the concentration of compound that causes 20% of RBCs to be lysed. […] All compounds are benchmarked against three commercial antiseptics—benzalkonium chloride, DDAC, and CHX (FIG. 1).
Hemolysis assays were performed according to a known method (Peng et al., 2011, Chem. Comm. 47:4896-4898). Defibrinated sheep blood was purchased from Hemostat Labs (DSB030). Compounds representative of each class were serially diluted in sterile PBS from stock solutions and incubated with resuspended blood cells. The OD of the final suspensions were measured directly using plate reader. TritonX (1% by volume) served as a positive control (100% lysis marker) and sterile PBS served as a negative control (0% lysis marker).

Row | SMILES | MBEC MRSA [2] | MBEC MSSA [3] | MIC PA ([4]; Table 6) [µM] | MIC EC ([5]; Table 6) [µM] | MIC EF [6] [µM] | MIC HA-MRSA [7] [µM] | MIC CA-MRSA [8] [µM] | MIC SA [9] [µM] | further results
1 | CCCCCCCCCCCCCCCCCC[n+]1cccc([C@@H]2CCC[N+]2(C)C)c1.[Br-].[I-] [N-18,1] |  |  |  |  |  |  |  |  | low micromolar activity [1]: 4 µM
2 | CCCCCCCCCCCCCCCC[n+]1cccc([C@@H]2CCCN2C)c1.[Br-] [N-16,0] |  |  |  |  |  |  |  |  | low micromolar activity [1]: 4 µM
3 | CCCCCCCCCCC[N+](C)(C)CCN1CC[N+](C)(CCCCCCCCCCC)CC1 [P-11,0,11] | 200 | 100 |  |  |  |  |  |  | 
4 | CCCCCCCCCCCCCCCCCC[N+]1(C)CC[N+](C)(C)CC[N+](C)(C)CC1 [C-18,1,1] | >200 | >200 |  |  |  |  |  |  | 
5 | CCCCCCCCCCCCCCCCCCCC[N+]1(C)CC[N+](C)(C)CC[N+](C)(C)CC1 [C-20,1,1] | >200 | >200 |  |  |  |  |  |  | 
6 | CCCCCCCCCCCCCCCCCCCC[N+]1(C)CCN(C)CCN(C)CC1.[Br-] [C-20,0,0] | >200 | >200 |  |  |  |  |  |  | 
7 | CCCCCCCCCCCCCCCC[N+](C)(C)CCCN(CCC[N+](C)(C)CCCCCCCCCCCCCCCC)CCC[N+](C)(C)CCCCCCCCCCCCCCCC.[Br-].[Br-].[Br-] [sT-16,16,16,0] |  |  | 32 | 16 | 16 | 16 | 4 | 8 | 
8 | CCCCCCCCCCCCCCCC[N+]1(C)CC[N+](C)(C)CC[N+](C)(C)CC1 [C-16,1,1] | 200 | 200 |  |  |  |  |  |  | 
9 | CCCCCCCCCC[N+](C)(C)CCCN(CC[N+](C)(C)CCCCCCCCCC)CC[N+](C)(C)CCCCCCCCCC [T-10,10,10] | 200 | 100 |  |  |  |  |  |  | 
10 | C=CC[N+](CCC[N+](C)(C)CCCCCCCCCCCCCC)(CCC[N+](C)(C)CCCCCCCCCCCCCC)CCC[N+](C)(C)CCCCCCCCCCCCCC [sT-14,14,14,3A] |  |  | 32 | 4 | 2 | 2 | 2 | 2 | 
11 | CCCCCCCCCCCCCCCCCC[N+]1(C)CCN(C)CCN(C)CC1.[Br-] [C-18,0,0] | >200 | 200 |  |  |  |  |  |  | 
12 | CCCCCCCCCCCC[N+](C)(C)CCC[N+](C)(CCC[N+](C)(C)CCCCCCCCCCCC)CCC[N+](C)(C)CCCCCCCCCCCC [sT-12,12,12,1] |  |  | 4 | 1 | 1 | 2 | 0.5 | 1 | 
13 | CCCCCCCCCCC[N+](C)(C)CCN(CC[N+](C)(C)CCCCCCCCCCC)CC[N+](C)(C)CCCCCCCCCCC [T-11,11,11] | >200 | 200 |  |  |  |  |  |  | MIC PA ([4]; Table 5, P. aeruginosa PAO1): 2 mm; MIC EC ([5]; Table 5, E. coli MC4100): 1 mm; MIC MRSA ([8]; Table 5, S. aureus USA300-0114): 1; MIC MSSA ([9]; Table 5, S. aureus SH1000): 0.5
14 | CCCCCCCCCCCC[N+](C)(C)CCCN(CCC[N+](C)(C)CCCCCCCCCCCC)CCC[N+](C)(C)CCCCCCCCCCCC [sT-12,12,12,0] |  |  | 4 | 1 | 1 | 1 | 0.5 | 0.5 | 
15 | CCCCCCCCCCCCCCCC[n+]1ccccc1 [Cetyl pyridinium chloride] |  |  |  |  |  |  |  |  | Lysis20 (red blood cells; concentration at which 20% of RBCs are lysed): 8 µM; TI MRSA (red blood cells; therapeutic index, Lysis20/MIC v MRSA): 0.5; TI SA (red blood cells; therapeutic index, Lysis20/MIC v SA): 16; MBEC v MRSA ([2]; Table 2, pre-formed MRSA biofilms): 200 µM
16 | CCCCCCCCCCCCCCCC[N+]1(C)CCN(C)CCN(C)CC1.[Br-] [C-16,0,0] | >200 | >200 |  |  |  |  |  |  | 
17 | C=CC[N+](CCC[N+](C)(C)CCCCCCCCCC)(CCC[N+](C)(C)CCCCCCCCCC)CCC[N+](C)(C)CCCCCCCCCC [sT-10,10,10,3A] |  |  | 1 | 0.5 | 0.5 | 0.5 | 0.25 | 0.5 | 
18 | CCCCCCCCCCCCC[N+](C)(C)CCC[N+](C)(CCC[N+](C)(C)CCCCCCCCCCCCC)CCC[N+](C)(C)CCCCCCCCCCCCC [sT-13,13,13,1] |  |  | 4 | 1 | 1 | 1 | 0.5 | 2 | 
19 | CCCCCCCCCCCC[N+](C)(C)CCN1CC[N+](C)(CCCCCCCCCCCC)CC1 [P-12,0,12] | 200 | 200 |  |  |  |  |  |  | 
20 | C=CC[N+](CCC[N+](C)(C)CCCCCCCCCCCCCCCC)(CCC[N+](C)(C)CCCCCCCCCCCCCCCC)CCC[N+](C)(C)CCCCCCCCCCCCCCCC [sT-16,16,16,3A] |  |  | 63 | 16 | 8 | 16 | 4 | 4 | 
